Data set [1] addresses T1, Aldo-keto reductase family 1 member A1 (Homo sapiens, UniProt P14550).
T1 sequence (P14550 whole entry): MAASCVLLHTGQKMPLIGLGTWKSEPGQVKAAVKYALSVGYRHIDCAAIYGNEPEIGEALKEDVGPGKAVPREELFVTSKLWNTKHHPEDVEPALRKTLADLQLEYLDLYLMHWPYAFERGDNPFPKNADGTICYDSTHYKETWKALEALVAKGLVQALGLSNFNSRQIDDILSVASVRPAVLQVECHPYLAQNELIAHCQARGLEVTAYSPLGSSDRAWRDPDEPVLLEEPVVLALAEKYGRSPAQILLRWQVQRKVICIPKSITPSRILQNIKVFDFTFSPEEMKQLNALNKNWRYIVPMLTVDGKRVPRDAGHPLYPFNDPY
The data set is described as follows: In vitro inhibition of recombinant human aldehyde reductase.

The target in data set [2] is Aldo-keto reductase family 1 member B1 (Homo sapiens, UniProt P15121). Description: In vitro inhibition of recombinant human aldose reductase expressed in Escherichia coli.
Data set [3] concerns Rattus norvegicus. Description: Inhibition of sciatic nerve sorbitol accumulation in diabetic rats (streptozotocin treated) done for 30 minutes at 22 degree C in dark by using sorbitol dehydrogenase at 10 mg/kg/day. It counts as functional. Particulars: 0.5 h.
The test system of data set [4] is Rattus norvegicus. Description: Inhibition of sorbitol accumulation in lens of diabetic rats (streptozotocin treated) done for 30 minutes at 22 degree C in dark by using sorbitol dehydrogenase at 10 mg/kg/day. It counts as functional. Particulars: Lens of camera-type eye, 0.5 h.
Data set [5] in a line: Half-life was determined in fasted rats after p.o. doses of 6 mg/kg/day. Particulars: rat, in vivo, po. It counts as ADME, organism-based. More on the design: route oral.
Data set [6] relates to Rattus norvegicus. The data set is described as follows: Myo-inositol accumulation in 3 month diabetic rats (streptozotocin treated) done for 30 minutes at 22 degree C in dark by using sorbitol dehydrogenase at 5 mg/kg/day. It counts as functional.
Data set [7] in a line: Half-life was determined in nonfasted rats after p.o. doses of 6 mg/kg/day. It counts as ADME, organism-based. More on the design: route oral. Particulars: rat, in vivo, po.
The species entered for data set [8] is Rattus norvegicus.
Description: Ability to lower elevated glucose levels in diabetic rats (streptozotocin treated) model at 4.8 mg/kg/day
The test system of data set [9] is Rattus norvegicus. Description: Improvement in fructose accumulation in 3 month diabetic rats (streptozotocin treated) done for 30 minutes at 22 degree C in dark by using sorbitol dehydrogenase at 5 mg/kg/day. It counts as functional.
Data set [10] can be described thus: Time require to reach maximum plasma concentration was determined in fasted rats after i.v. doses of 10 mg/kg/day. It counts as ADME, organism-based. More on the design: route intravenous. Particulars: rat, iv.
The species entered for data set [11] is Rattus norvegicus. Particulars: Plasma.
Description: Ability to lower elevated plasma triglyceride levels in diabetic rats (streptozotocin treated) model at 0.48 mg/kg/day
The nature of data set [12]: Maximum plasma concentration was determined in fasted rats after i.v. doses of 10 mg/kg/day. It counts as ADME, organism-based. Set-up: dose 10 mg/kg/day, route intravenous. Particulars: rat, in vivo, iv.
Data set [13] is described as follows: Maximum plasma concentration was determined in fasted rats after p.o. doses of 6 mg/kg/day. It counts as ADME, organism-based. More on the design: dose 6 mg/kg/day, route oral. Particulars: rat, in vivo, po.
The species entered for data set [14] is Rattus norvegicus. Particulars: Plasma. This is another data set of the same source.
Description: Ability to lower elevated plasma triglyceride levels in diabetic rats (streptozotocin treated) model at 0.95 mg/kg/day
Data set [15] is described as follows: Area under the concentration time curve 0-24 hr was determined in fasted rats after p.o. doses of 6 mg/kg/day. Particulars: rat, in vivo, po. Set-up: time < 24 hr, dose 6 mg/kg/day, route oral. It counts as ADME, organism-based.
Data set [16] is filed under the species Rattus norvegicus. This is another data set of the same source.
Description: Sorbitol accumulation in 3 month diabetic rats (streptozotocin treated) done for 30 minutes at 22 degree C in dark by using sorbitol dehydrogenase at 5 mg/kg/day; BQL is Below quantifiable level
For data set [17], the species on record is Rattus norvegicus. Particulars: Plasma. The source holds these as a separate data set.
Description: Ability to lower elevated plasma triglyceride levels in diabetic rats (streptozotocin treated) model at 4.8 mg/kg/day
The species named for data set [18] is Rattus norvegicus. The source holds these as a separate data set.
Description: Ability to lower elevated glucose levels in diabetic rats (streptozotocin treated) model at 0.48 mg/kg/day
Data set [19] can be described thus: Area under the concentration time curve 0-24 h was determined in nonfasted rats after p.o. doses of 6 mg/kg/day. It counts as ADME, organism-based. Set-up: dose 6 mg/kg/day, time < 24 hr, route oral. Particulars: rat, in vivo, po.
A short description of data set [20]: Volume of distribution was determined in fasted rats after i.v. doses of 10 mg/kg/day. It counts as ADME, organism-based. Set-up: route intravenous. Particulars: rat, in vivo, iv.
Data set [21] is filed under the species Rattus norvegicus. The source holds these as a separate data set.
Description: Ability to lower elevated glucose levels in diabetic rats (streptozotocin treated) model at 1.9 mg/kg/day
For data set [22], the species on record is Rattus norvegicus. Particulars: Plasma. This is another data set of the same source.
Description: Ability to lower elevated plasma triglyceride levels in diabetic rats (streptozotocin treated) model at 1.9 mg/kg/day
Data set [23] deals with Rattus norvegicus. The data set is described as follows: Fructose accumulation in 3 month diabetic rats (streptozotocin treated) done for 30 minutes at 22 degree C in dark by using sorbitol dehydrogenase at 5 mg/kg/day. It counts as functional.
The species named for data set [24] is Rattus norvegicus. This is another data set of the same source.
Description: Ability to lower elevated glucose levels in diabetic rats (streptozotocin treated) model at 1.4 mg/kg/day
Data set [25] can be described thus: Total body clearance was determined in nonfasted rats after p.o. doses of 6 mg/kg/day. It counts as ADME, organism-based. More on the design: route oral. Particulars: rat, in vivo, po, read-out: ClT.
The test system of data set [26] is Rattus norvegicus. Description: Improvement in sorbitol accumulation in 3 month diabetic rats (streptozotocin treated) done for 30 minutes at 22 degree C in dark by using sorbitol dehydrogenase at 5 mg/kg/day. It counts as functional.
Data set [27] in a line: Time require to reach maximum plasma concentration was determined in nonfasted rats after p.o. doses of 6 mg/kg/day. It counts as ADME, organism-based. Set-up: route oral. Particulars: rat, po.
A short description of data set [28]: Total body clearance was determined in fasted rats after p.o. doses of 6 mg/kg/day. It counts as ADME, organism-based. Set-up: route oral. Particulars: rat, in vivo, po, read-out: ClT.
The species named for data set [29] is Rattus norvegicus. The source holds these as a separate data set.
Description: Ability to lower elevated glucose levels in diabetic rats (streptozotocin treated) model at 0.95 mg/kg/day
A short description of data set [30]: Total body clearance was determined in fasted rats after i.v. doses of 10 mg/kg/day. It counts as ADME, organism-based. Set-up: route intravenous. Particulars: rat, in vivo, iv, read-out: ClT.
Data set [31] concerns Rattus norvegicus. The data set is described as follows: Improvement in myo-inositol accumulation in 3 month diabetic rats (streptozotocin treated) done for 30 minutes at 22 degree C in dark by using sorbitol dehydrogenase at 5 mg/kg/day. It counts as functional.
Data set [32] is filed under the species Rattus norvegicus. Particulars: Plasma. This is another data set of the same source.
Description: Ability to lower elevated plasma triglyceride levels in diabetic rats (streptozotocin treated) model at 1.4 mg/kg/day
Data set [33] can be described thus: Maximum plasma concentration was determined in nonfasted rats after p.o. doses of 6 mg/kg/day. It counts as ADME, organism-based. Set-up: dose 6 mg/kg/day, route oral. Particulars: rat, in vivo, po.
The nature of data set [34]: Time require to reach maximum plasma concentration was determined in fasted rats after p.o. doses of 6 mg/kg/day. It counts as ADME, organism-based. More on the design: route oral. Particulars: rat, po.
Data set [35] in a line: Area under the concentration time curve 0-24 hr was determined in fasted rats after i.v. doses of 10 mg/kg/day. More on the design: time < 24 hr, dose 10 mg/kg/day, route intravenous. It counts as ADME, organism-based. Particulars: rat, in vivo, iv.
Data set [36] in a line: Half-life was determined in fasted rats after i.v. doses of 10 mg/kg/day. It counts as ADME, organism-based. Particulars: rat, in vivo, iv. Set-up: route intravenous.

One may read the IC50 as the concentration that inhibits the measured activity by half. On to `O=C(O)Cn1cc(Cc2nc3c(F)c(F)cc(F)c3s2)c2ccc(-c3ccccc3)cc21`, for which the IC50 in [1] amounted to 6100 nM.

Regarding `Cc1ccc2c(Cc3nc4c(F)c(F)cc(F)c4s3)cn(CC(=O)O)c2c1`, in data set [2], the IC50 was found to be 10 nM.

Broadly, the inhibition in vivo is the percentage by which the read-out fell short of the control. The low end stands for little suppression, the high end for strong suppression. With `O=C(O)Cc1nn(Cc2nc3cc(C(F)(F)F)ccc3s2)c(=O)c2ccccc12` [ZOPOLRESTAT], the inhibition in vivo at 10 mg/kg/day with Rattus norvegicus [3] was found to be 80%; in the data set with Rattus norvegicus [4], 9%. In [1], the IC50 amounted to 38600 nM.

As to `O=C(O)Cn1cc(Cc2nc3c(F)c(F)cc(F)c3s2)c2ccc(N3CCOCC3)cc21`, the IC50 in [1] came out at 44000 nM.

Regarding `O=C(O)Cn1cc(Cc2nc3ccc(Cl)cc3s2)c2ccccc21`, the IC50 in [1] was 2100 nM.

`O=C(O)Cn1cc(Cc2nc3cccc(F)c3s2)c2ccccc21`: the values for the IC50 in data set [1] and in [2] were 18000 nM and 55 nM, respectively.

For the compound `Cc1ccc2c(c1)c(Cc1nc3cc(C(F)(F)F)ccc3s1)cn2CC(=O)O`, the half-inhibitory concentration (IC50) stood at 10200 nM in [1] and 100 nM in data set [2].

Consider `CC(C(=O)O)n1cc(Cc2nc3c(F)c(F)cc(F)c3s2)c2ccccc21` (stereo not drawn), for which the IC50 in [2] came to 163 nM.

By half-life is commonly meant the time needed for the level to fall by half in the phase considered. A high value points to slow decline. In general, Tmax refers to the time from dosing to the highest level. Broadly, the Vd is the apparent volume that relates the amount in the body to the concentration in plasma or blood. A higher Vd goes with extensive tissue distribution. Regarding `O=C(O)Cn1cc(Cc2nc3c(F)c(F)cc(F)c3s2)c2ccccc21` [LIDORESTAT], the half-life is 5.61 h in data set [5], 5.18 h in data set [7] and 5.04 h in data set [36]. In addition, the inhibition in vivo at 10 mg/kg/day with Rattus norvegicus [3] is 100%; in the data set on Rattus norvegicus [4], 77%. For the same compound, the Accumulation with Rattus norvegicus [6] is given as 9.26 nM/mg of dry wt; with Rattus norvegicus [9] it was 100%; in the data set listed under Rattus norvegicus [16] it was “Below quantifiable level”; in the data set on Rattus norvegicus [23], 1.62 nM/mg of dry wt; in the data set with Rattus norvegicus [26] it was 100%; with Rattus norvegicus [31] it was 79%. The Level is 417 mg/dL in the data set listed under Rattus norvegicus [8]; 301 mg/dL in the data set filed under Rattus norvegicus [11]; 261 mg/dL in the data set listed under Rattus norvegicus [14]; 189 mg/dL in the data set filed under Rattus norvegicus [17]; 432 mg/dL in the data set listed under Rattus norvegicus [18]; 440 mg/dL in the data set listed under Rattus norvegicus [21]. The Level in the data set filed under Rattus norvegicus [22] worked out at 218 mg/dL; in the data set filed under Rattus norvegicus [24], 427 mg/dL; in the data set listed under Rattus norvegicus [29], 430 mg/dL; in the data set listed under Rattus norvegicus [32], 242 mg/dL. Also, the Tmax in data set [10] was 4.8 min; in data set [27], 5 h; in data set [34], 3.5 h. The Cmax in data set [12] amounted to 24 ug equiv/mL; in [13] it was 4.18 ug equiv/mL; in [33], 6.09 µg equiv/mL. The values for the AUC in data set [15], in data set [19] and in [35] were 43.5 ug equiv/h/mL, 72.8 ug equiv/h/mL and 97.1 ug equiv/h/mL, respectively. In data set [20], the Vd was 0.694 L/kg. Besides, the CL/F in data set [25] came out at 1.37 mL/min/kg; in data set [28], 2.24 mL/min/kg. Also, in data set [30], the clearance came out at 1.7 mL/min/kg.

Take `O=C(O)Cn1cc(Cc2nc3c(F)c(F)cc(F)c3s2)c2cc(Br)ccc21`: the IC50 in data set [1] was 4700 nM.

Turning to `O=C(O)Cn1cc(Cc2nc3cc(F)c(F)cc3s2)c2ccccc21`, the IC50 in data set [1] is 13000 nM; in data set [2], 560 nM.

`O=C(O)Cn1c(=O)n(Cc2ccc(Br)cc2F)c(=O)c2ccc(Cl)cc21` [ZENARESTAT]: the inhibition in vivo at 10 mg/kg/day in the data set on Rattus norvegicus [3] worked out at 64%; with Rattus norvegicus [4], 2%. For the same compound, the concentration for half-maximal inhibition (IC50) in data set [1] came to 9900 nM; in data set [2] it was 8 nM.

Regarding `COc1ccc2c(c1)c(Cc1nc3c(F)c(F)cc(F)c3s1)cn2CC(=O)O`, the IC50 in [2] came out at 8 nM.

On to `O=C(O)Cn1cc(Cc2nc3ccc(F)cc3s2)c2ccccc21`, for which the IC50 in data set [2] turned out to be 1000 nM.

Regarding `O=C(O)Cn1cc(Cc2nc3cc(C(F)(F)F)ccc3s2)c2ccc(Br)cc21`, the IC50 in [1] turned out to be 3400 nM.

On to `O=C(O)Cn1cc(CCc2nc3c(F)c(F)cc(F)c3s2)c2ccccc21`, for which the IC50 in data set [1] came to 11000 nM; in [2], 8 nM.

For `O=C(O)Cn1cc(Cc2nc3cc(F)ccc3s2)c2ccccc21`, in data set [1], the IC50 came to 6400 nM.

`O=C(O)Cn1cc(Cc2nc3cc(C(F)(F)F)ccc3s2)c2cc(Cl)ccc21`: the IC50 turned out to be 4900 nM in data set [1] and 130 nM in data set [2].

As for `O=C(O)Cn1cc(C(=O)c2nc3c(F)c(F)cc(F)c3s2)c2ccccc21`, the IC50 in data set [2] was 1600 nM.

For the compound `O=C(O)Cn1cc(Cc2nc3c(F)cccc3s2)c2ccccc21`, the IC50 in data set [1] is 11000 nM; in [2] it was 34 nM.

`O=C(O)Cn1cc(Cc2nc3c(F)cc(F)cc3s2)c2ccccc21`: the IC50 in [1] was determined as 5100 nM; in data set [2], 690 nM.

In the case of `COc1ccc2c(C(=S)N(C)CC(=O)O)cccc2c1C(F)(F)F` [TOLRESTAT], the figures for the inhibition in vivo at 10 mg/kg/day in the data set with Rattus norvegicus [3] and with Rattus norvegicus [4] were 27% and 7%, respectively.

These data come from ChEMBL document CHEMBL1144413 (J Med Chem, 2005).
